Laboratory results as given in PMC9994102, “A fluorescent photoaffinity probe for formyl peptide receptor 1 labelling in living cells†” (RSC Chemical Biology, 2023).
Square brackets hold non-standard residues; d marks the D form. * marks the point of attachment. FITC = O=C1OC2(c3ccc(O)cc3Oc3cc(O)ccc32)c2ccc(NC(=S)*)cc21; Abu(3-Me-diazirin-3-yl) = CC1(CC[C@H](N)C(=O)O)N=N1; Nle = CCCC[C@H](N)C(=O)O; For = O=C*

Experiments:
[1] = system: FPR1 (crude membrane fraction of transfected HEK293T cells); assay: gel-based competition of probe-TAMRA labelling in membrane fraction; assay type: binding; conditions: 50 nM probe-TAMRA, 30 min on ice, 2% DMSO, 365 nm 30 s, PNGaseF
Description: (a) UV-dependent crosslinking analysed by gel and western blot. […] Following cell lysis, samples were separated by SDS-PAGE and analysed by in-gel fluorescence (550 nm emission) and anti-FLAG western blot. Ponceau staining was used to assess protein loading. […] Probes were used at a concentration of 10 nM. Samples were washed twice before analysis and 10,000 cells were measured per sample. […] HEK293T cells transfected with FPR1 or mock transfected were suspended, lysed by sonication and membrane fraction isolated by centrifugation. […] Proteins were deglycosylated with PNGaseF, separated by SDS-PAGE and analysed by in-gel fluorescence (550nm emission). The gel was Coomassie stained to provide evidence of equal protein loading.
(§1) Cells were incubated in a humidified atmosphere at 37 °C containing 5% CO2. HEK293T cells were cultured in Dulbecco’s Modified Eagle Medium (DMEM, Fisher) supplemented with 1% L-glutamine, 10% v/v fetal bovine serum (FBS) and 1% v/v Pen-Strep. Cells were detached using 1  trypsin in PBS.
HEK293T cells were seeded in a 6-well plate (2 × 10^5 cells/well) and incubated at 37 °C overnight. The plasmid containing FPR1 gene (0.7 µg/µL stock) and Turbofect (Fisher) were mixed with DMEM (no FBS) and incubated at room temperature for 15 min (1 µg of plasmid and 3 µL of Turbofect in 100 µL of media per well). The solution was added to the plated cells and incubated at 37 °C overnight. For mock transfection, the plasmid was omitted.
For 10 cm plate transfection for lysate preparation, the following modifications were used: 1.6×10^6 cells were seeded per plate; 8 µg plasmid and 24 µL Turbofect were mixed in 800 µL DMEM.
Transfected cells were washed with PBS and incubated in 1 mL of PBS with EDTA (per well) at 37 °C for 3 min to detach. The cells were then transferred into sterile Eppendorf tubes and centrifuged at 2000 rpm for 3 min at 4 °C to form pellets. Subsequently the cells were incubated with 1 mL of 10 nM probe in PBS at 0 °C for 30 min. […] Protein concentration was determined by the DC protein assay (Bio-Rad) using BSA to generate a standard curve. […]

[2] = system: FPR1 (FPR1-HEK293T cells); assay: flow cytometry competition of probe-TAMRA with known ligands; assay type: binding; conditions: probe-TAMRA 10 nM
Description: as §1
HEK293T cells were seeded in a 6-well plate (2 × 10^5 cells/well) and incubated at 37 °C overnight. The plasmid containing FPR1 gene (0.7 µg/µL stock) and Turbofect (Fisher) were mixed with DMEM (no FBS) and incubated at room temperature for 15 min (1 µg of plasmid and 3 µL of Turbofect in 100 µL of media per well). The solution was added to the plated cells and incubated at 37 °C overnight. For mock transfection, the plasmid was omitted. […]
concentrations of 5 µM, 20 µM, 5 µM respectively) or DMSO for 30 min on ice (final DMSO concentration of 2%). […] Membranes were resuspended in 25 µL PBS, irradiated for 30 s at 365 nm, deglycosylated as described in section 2.6, and then analysed by SDS-PAGE.
Crosslinked cell lysate samples were analysed using gel-based fluorescent imaging. […] Fluorescence was measured using a BioRad ChemiDoc MP Imaging System with a Cy3 filter. […]

FPR1 [3] = target: FPR1; set-up: method as in 4 sources, ref [17] = [17]; PMID 18312550; doi:10.1111/j.1747-0285.2008.00646.x; Wittelsberger A. Mierke D. F. Rosenblatt M. Mapping ligand-receptor interfaces: approaching the resolution limit of benzophenone-based photoaffinity scanning Chem. Biol. Drug Des. 2008 71 4 380 383 10 ||| ref [20] = [20]; PMID 472759; doi:10.1126/science.472759; Niedel J. E. Kahane I. Receptor-Mediated Internalisation of Fluorescent Chemotactic Peptide by Human Neutrophils Science 1979 205 1412 1414 10.1126/science.472759 472759 ||| ref [21] = [21]; PMID 15209517; doi:10.1021/bi035335i; Waller A. Sutton K. L. Kinzer-Ursem T. L. Absood A. Traynor J. R. Linderman J. J. Omann G. M. Receptor binding kinetics and cellular responses of six N-formyl peptide agonists in human neutrophils Bio ||| ref [30] = [30]; PMID 19006074; doi:10.1002/cyto.a.20670; Strouse J. J. Young S. M. Mitchell H. D. Ye R. D. Prossnitz E. R. Sklar L. A. Edwards B. S. A novel fluorescent cross-reactive formylpeptide receptor/formylpeptide receptor-like 1 hexapeptide ligand C; conditions: cited from earlier work; for binding to FPR1: ref [20]
FPR1 [4] = conditions: ref [20]; cited from earlier work
Description: Upon agonist binding, FPR1 internalises following activation of G protein subunits, resulting in receptor desensitisation.[20] […] Upon heating to 37 °C, fluorescent material was ob ...

[5] = target: T1, FPR1 (FLAG-tagged, transiently transfected HEK293T cells) (Homo sapiens, UniProt P21462); assay: flow cytometry binding to FPR1-transfected HEK293T cells; conditions: 10 nM; 10 000 cells per sample
T1 construct: host or cells: HEK293T, transient transfection with Turbofect
T1 sequence (P21462 1-350): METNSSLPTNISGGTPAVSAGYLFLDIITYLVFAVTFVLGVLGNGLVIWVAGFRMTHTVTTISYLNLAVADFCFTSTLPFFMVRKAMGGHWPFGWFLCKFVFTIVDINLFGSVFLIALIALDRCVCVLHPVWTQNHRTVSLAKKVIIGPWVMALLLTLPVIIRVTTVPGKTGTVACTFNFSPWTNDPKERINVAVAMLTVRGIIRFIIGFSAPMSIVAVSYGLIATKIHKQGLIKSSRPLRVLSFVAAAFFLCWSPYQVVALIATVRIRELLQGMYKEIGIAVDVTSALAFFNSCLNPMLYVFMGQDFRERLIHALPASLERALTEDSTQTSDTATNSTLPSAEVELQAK
Description: Fig. 2 Evaluation of probe-TAMRA as a ligand for FPR1 by flow cytometry. Histograms of FPR1-transfected (+FPR1) or mock-transfected (mock) HEK293T cells incubated with Tracer-FITC (a) or probe-TAMRA (b) each at 10 nM at the indicated wavelengths. 10 000 cells measured per sample. (c) Plot of mean fluorescence intensity determined from flow cytometry analysis following incubation with increasing concentrations of probe-TAMRA with transfected (blue) or mock transfected (grey) cells. Data from 3 biological replicates; error bars represent standard error of the mean. Black curve is subtraction of background binding (grey curve) from blue curve and represents specific binding. (d) Dot plot from incubation of transfected cells with Tracer-FITC alone (cyan), probe-TAMRA alone (blue), or co-incubation of probe and tracer (red). All peptides at 10 nM. (e) Plot of percentage maximum fluorescence at 525 nm (FITC) and 585 nm (TAMRA) wavelengths from a flow cytometry competition experiment in which Tracer-FITC was held constant at a concentration of 10 nM and the concentration of probe-TAMRA increased from 0–200 nM. […]
Transfected cells were washed with PBS and incubated in 1 mL of PBS with EDTA (per well) at 37 °C for 3 min to detach. […] Protein concentration was determined by the DC protein assay (Bio-Rad) using BSA to generate a standard curve. […]

[6] = target: T2, Formyl peptide receptor 1, C-terminally FLAG-tagged (UniProt P21462 1-350); assay: flow cytometry on cells; FPR1-transfected or mock-transfected HEK293T cells incubated with the fluorescent peptide (10 nM; probe-TAMRA titrated 0-200 nM); background of mock-transfected cells subtracted; 3 biological replicates; conditions: one partner purified
T2 construct: Formyl peptide receptor 1 (FPR1); Glycosylated in HEK293T (diffuse band that sharpens with PNGaseF); also called FPR1; FLAG-tagged FPR1; source: HEK293T, transiently transfected; on living cells, in lysate (sonication) or in a crude membrane fraction; not shown: FLAG, C-terminal, kept
T2 sequence (looked up): T1 sequence (P21462 1-350)

Molecule: fMLF
- inhibition of probe-TAMRA labelling ([1]; 5 μM competitor): incomplete inhibition
- concentration at which competition of probe-TAMRA binding observed [2]: greater than 5 μM
- KD of tripeptide (reported, words) (FPR1 [3]; ref [21]): nM range

Molecule: Boc-MLF
- inhibition of probe-TAMRA labelling ([1]; 20 μM competitor): incomplete inhibition
- concentration at which competition of probe-TAMRA binding observed [2]: 10 to 50 µM

Molecule: fMLFF
- inhibition of probe-TAMRA labelling ([1]; 5 μM competitor): complete inhibition
- potency as reported (FPR1 [3]; ref [30]): more potent

Molecule: formyl-Nle-Leu-Phe-Nle-Tyr-Lys(TAMRA)-OH [TAMRA version of the tracer]
- internalisation (literature) (FPR1 [4]): receptor internalisation
- binding to FPR1 (FPR1 [3]): low nM binding to FPR1

Molecule: For-[Nle]LF[Nle]YK(FITC)-OH [Tracer-FITC]
- Kd (FPR1 [3]; ref [17], read-out: reported KD): ~3 nM
- binding to FPR1 (FPR1 [3]): low nM binding to FPR1
- fluorescence shift in flow cytometry [5]: clear shift to a population of fluorescent cells with minimal background binding in mock-transfected cells

Molecule: For-[Abu(3-Me-diazirin-3-yl)]LF[Nle]YK(5(6)‑TAMRA)-OH [probe-TAMRA]
- Kd [6]: 3.5 ± 0.9 nM
